Reference: patent publication US20260001928A1 (CORTERIA PHARMACEUTICALS, priority 2022, published 2026)
*1 amine or outer side, *2 acyl side, *3 side chain or, on linkers, in order; H or OH if unused. Where a SMILES comes first, the peptide text is derived from it. Side-chain parts run from the residue outwards. [ ]: non-standard residue; d: D form. The star is where a group is joined. C18 diacid = O=C(O)CCCCCCCCCCCCCCCCC(=O)*; C16 diacid = O=C(O)CCCCCCCCCCCCCCC(=O)*; γGlu = O=C(O)[C@H](CCC(=O)[*:2])N[*:1]; Dap = NC[C@H](N)C(=O)O; AEEA = NCCOCCOCC(=O)O

Key:
human CRF2a receptor = molecular target: T1, human CRF2a receptor (Homo sapiens, UniProt Q13324); assay: Activity at human CRF2a receptor, cAMP functional assay in TeloHEAC cells; assay type: cell-based; settings: TeloHEAC cells stably expressing human CRF2a receptor, relative to urocortin 2 (100 nM = 100%)
T1 construct: expressed in transfected cells; host or cells: TeloHEAC cells
T1 sequence (Q13324 1-411): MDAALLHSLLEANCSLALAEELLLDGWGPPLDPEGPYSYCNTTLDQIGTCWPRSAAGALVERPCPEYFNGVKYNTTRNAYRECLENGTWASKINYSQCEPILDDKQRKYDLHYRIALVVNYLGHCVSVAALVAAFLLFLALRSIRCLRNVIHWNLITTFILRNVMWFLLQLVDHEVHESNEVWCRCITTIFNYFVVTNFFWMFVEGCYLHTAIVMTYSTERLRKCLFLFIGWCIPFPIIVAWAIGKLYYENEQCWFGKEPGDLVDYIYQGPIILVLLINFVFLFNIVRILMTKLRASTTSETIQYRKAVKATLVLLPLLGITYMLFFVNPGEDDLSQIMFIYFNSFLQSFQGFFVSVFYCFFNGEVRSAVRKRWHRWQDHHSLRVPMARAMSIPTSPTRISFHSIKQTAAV
Method in brief: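 cAMP accumulation was measured by HTRF 665/620 nm ratio after 30 min at 37° C compound exposure (16 twofold dilutions) of CRF2a-expressing TeloHEAC cells, 10000/well, in HEPES-buffered HBSS plus IBMX. Activity was normalised to urocortin 2 at 100 nM (100%), and EC50 was the concentration giving half-maximal activation.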

CFR1R receptor = molecular target: T2, CFR1R receptor (Homo sapiens, UniProt P34998); assay: Activity at anti-target CFR1R receptor, cAMP assay in CRF1R-overexpression CHO-K1 cells; assay type: cell-based; settings: 100% = Sauvagine at 100 nM; for EC50: cAMP
T2 construct: host or cells: CHO-K1 (clone 2)
T2 sequence (P34998 24-415): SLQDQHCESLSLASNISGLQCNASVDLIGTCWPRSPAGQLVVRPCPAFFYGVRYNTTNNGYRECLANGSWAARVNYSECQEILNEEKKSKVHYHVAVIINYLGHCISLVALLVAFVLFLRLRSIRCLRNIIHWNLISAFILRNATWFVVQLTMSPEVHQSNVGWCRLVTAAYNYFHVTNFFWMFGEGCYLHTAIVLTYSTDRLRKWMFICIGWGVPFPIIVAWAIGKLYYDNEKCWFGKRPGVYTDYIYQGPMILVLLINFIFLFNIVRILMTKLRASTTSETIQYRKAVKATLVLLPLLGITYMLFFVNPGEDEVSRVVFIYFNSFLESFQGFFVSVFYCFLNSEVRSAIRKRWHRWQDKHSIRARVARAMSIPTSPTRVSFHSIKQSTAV
Method in brief: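 cAMP readout in CRF1R-overexpressing CHO-K1 cells (clone 2), run as for the TeloHAEC assay at 4000 cells/well final. Cells came from cryopreserved banks. Sauvagine at 100 nM defined 100% activation.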

[1] = Chemical stability in buffer (pH 7.4 / pH 4.5), % purity loss; assay type: physicochemical; settings: 40° C. vs 5° C., 14 or 28 days; for Buffer stability pH 4.5 % purity loss: 100 mM acetate buffer pH 4.5; for Buffer stability pH 7.4 % purity loss: 100 mM phosphate buffer pH 7.4
Method in brief: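 Compounds dissolved at 10 mg/mL target in 100 mM phosphate (pH 7.4) or 100 mM acetate (pH 4.5) buffer for 1 h at room temperature, then centrifuged. Diluted supernatant stored at 5 °C or 40 °C for 14 or 28 days; % purity loss by LC-UV.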

Sprague Dawley rats = assay: Effect on systolic blood pressure, telemetry in Sprague Dawley rats; assay type: in vivo, rat; settings: 0.1 mg/kg SC; for Systolic blood pressure (Mean) % change from baseline, 8 h / Systolic blood pressure (Mean) % change from baseline, 12 h / Systolic blood pressure (Mean) % change from baseline, 24 h: n=2; for Duration of action: last time point with an effect on BP still observed
Method in brief: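 Sprague Dawley rats with abdominal-aorta telemetry catheters, recovered ≥10 days, received 0.1 mg/kg SC of compound or vehicle. Systolic pressure recorded 1 h pre-dose as baseline, then continuously up to 48 hours, expressed as % change from baseline; duration of action is last time point with a BP effect (n=2).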

Row | SMILES | EC50 (human CRF2a receptor) [nM] | Emax (% I) (CFR1R receptor) | EC50 (CFR1R receptor) [nM] | Buffer stability pH 4.5 % purity loss [1] [%] | Buffer stability pH 7.4 % purity loss [1] [%] | Systolic blood pressure (Mean) % change from baseline, 8 h (Sprague Dawley rats) [%] | Systolic blood pressure (Mean) % change from baseline, 12 h (Sprague Dawley rats) [%] | Systolic blood pressure (Mean) % change from baseline, 24 h (Sprague Dawley rats) [%] | Duration of action (Sprague Dawley rats) [h]
1 | CC[C@H](C)[C@H](NC(C)=O)C(=O)N[C@H](C(=O)N[C@@H](CC(C)C)C(=O)N[C@@H](CO)C(=O)N[C@@H](CC(C)C)C(=O)N[C@@H](CC(=O)O)C(=O)N[C@@H](C(=O)N1CCC[C@H]1C(=O)N[C@H](C(=O)N[C@@H](CCCCN)C(=O)N[C@@H](CC(C)C)C(=O)N[C@@H](CCCCNC(=O)CC[C@H](NC(=O)CCCCCCCCCCCCCCC(=O)O)C(=O)O)C(=O)N[C@@H](CCCCN)C(=O)N[C@H](C(=O)N[C@@H](CC(C)C)C(=O)N[C@@H](CC(C)C)C(=O)N[C@@H](CCC(=O)O)C(=O)N[C@@H](CCC(N)=O)C(=O)N[C@@H](CCC(=O)O)C(=O)N[C@@H](CCCCN)C(=O)N[C@@H](CCC(N)=O)C(=O)N[C@@H](CCCCN)C(=O)N[C@@H](CCCCN)C(=O)N[C@@H](CCC(N)=O)C(=O)N[C@@H](CCCNC(=N)N)C(=O)N[C@@H](CCC(=O)O)C(=O)N[C@@H](CCC(N)=O)C(=O)N[C@@H](C)C(=O)N[C@@H](CCC(=O)O)C(=O)N[C@H](C(=O)N[C@@H](CC(N)=O)C(=O)N[C@@H](C)C(=O)N[C@@H](CCC(N)=O)C(=O)N[C@H](C(=O)N[C@@H](CC(C)C)C(=O)N[C@@H](C)C(=O)N[C@@H](CCC(N)=O)C(=O)N[C@H](C(N)=O)C(C)C)[C@@H](C)CC)[C@@H](C)O)[C@@H](C)CC)[C@@H](C)CC)C(C)C)C(C)C [compound 47] (Ac-IVLSLD[dV]PIKLK([γGlu-C16 diacid])KILLEQEKQKKQREQAETNAQILAQV-NH2) | 0.09 | 10 | > 250 | 0 | 9.0 | −14 | −6 | 2 | 23
2 | CC[C@H](C)[C@H](NC(C)=O)C(=O)N[C@H](C(=O)N[C@@H](CC(C)C)C(=O)N[C@@H](CO)C(=O)N[C@@H](CC(C)C)C(=O)N[C@@H](CC(=O)O)C(=O)N[C@@H](C(=O)N1CCC[C@H]1C(=O)N[C@H](C(=O)N[C@@H](CCCCN)C(=O)N[C@@H](CC(C)C)C(=O)N[C@@H](CCCCNC(=O)CC[C@H](NC(=O)CCCCCCCCCCCCCCC(=O)O)C(=O)O)C(=O)N[C@@H](CCCCN)C(=O)N[C@H](C(=O)N[C@@H](CC(C)C)C(=O)N[C@@H](CC(C)C)C(=O)N[C@@H](CCC(=O)O)C(=O)N[C@@H](CCC(N)=O)C(=O)N[C@@H](CCC(=O)O)C(=O)N[C@@H](CCCCN)C(=O)N[C@@H](CCC(N)=O)C(=O)N[C@@H](CCCCN)C(=O)N[C@@H](CCCCN)C(=O)N[C@@H](CCC(N)=O)C(=O)N[C@@H](CCCNC(=N)N)C(=O)N[C@@H](CCC(=O)O)C(=O)N[C@@H](CCC(N)=O)C(=O)N[C@@H](C)C(=O)N[C@@H](CCC(=O)O)C(=O)N[C@H](C(=O)N[C@@H](CC(N)=O)C(=O)N[C@@H](CN)C(=O)N[C@@H](CCC(N)=O)C(=O)N[C@H](C(=O)N[C@@H](CC(C)C)C(=O)N[C@@H](C)C(=O)N[C@@H](CCC(N)=O)C(=O)N[C@H](C(N)=O)C(C)C)[C@@H](C)CC)[C@@H](C)O)[C@@H](C)CC)[C@@H](C)CC)C(C)C)C(C)C [compound 55] (Ac-IVLSLD[dV]PIKLK([γGlu-C16 diacid])KILLEQEKQKKQREQAETN[Dap]QILAQV-NH2) | 0.42 | 5 | > 250 | 28.9 | 73.5 | −31 | −23 | 0 | 23
3 | CC[C@H](C)[C@H](NC(=O)[C@H](CCC(N)=O)NC(=O)[C@H](CCCCN)NC(=O)[C@H](CC(N)=O)NC(=O)[C@@H](NC(=O)[C@H](CCC(=O)O)NC(=O)[C@H](C)NC(=O)[C@H](CCC(N)=O)NC(=O)[C@H](CCC(=O)O)NC(=O)[C@H](CCCNC(=N)N)NC(=O)[C@H](CCC(N)=O)NC(=O)[C@H](CCCCN)NC(=O)[C@H](CCCCN)NC(=O)[C@H](CCC(N)=O)NC(=O)[C@H](CCCCN)NC(=O)[C@H](CCC(=O)O)NC(=O)[C@H](CCC(N)=O)NC(=O)[C@H](CCC(=O)O)NC(=O)[C@H](CC(C)C)NC(=O)[C@H](CC(C)C)NC(=O)[C@@H](NC(=O)[C@H](CCCCN)NC(=O)[C@H](CCCCNC(=O)CC[C@H](NC(=O)CCCCCCCCCCCCCCC(=O)O)C(=O)O)NC(=O)[C@H](CC(C)C)NC(=O)[C@H](CCCCN)NC(=O)[C@@H](NC(=O)[C@@H]1CCCN1C(=O)[C@H](NC(=O)[C@H](CC(=O)O)NC(=O)[C@H](CC(C)C)NC(=O)[C@H](CO)NC(=O)[C@H](CC(C)C)NC(=O)[C@@H](NC(C)=O)C(C)C)C(C)C)[C@@H](C)CC)[C@@H](C)CC)[C@@H](C)O)C(=O)N[C@@H](CC(C)C)C(=O)N[C@@H](C)C(=O)N[C@@H](CCC(N)=O)C(=O)N[C@H](C(N)=O)C(C)C [compound 33] (Ac-VLSLD[dV]PIKLK([γGlu-C16 diacid])KILLEQEKQKKQREQAETNKQILAQV-NH2) | 0.47 | 13 | > 250 | 0 | 18.8 | −22 | −11 | 16 | 17
4 | CC[C@H](C)[C@H](NC(C)=O)C(=O)N[C@H](C(=O)N[C@@H](CC(C)C)C(=O)N[C@@H](CO)C(=O)N[C@@H](CC(C)C)C(=O)N[C@@H](CC(=O)O)C(=O)N[C@@H](C(=O)N1CCC[C@H]1C(=O)N[C@H](C(=O)N[C@@H](CCCCN)C(=O)N[C@@H](CC(C)C)C(=O)N[C@@H](CCCCNC(=O)COCCOCCNC(=O)COCCOCCNC(=O)CC[C@H](NC(=O)CCCCCCCCCCCCCCCCC(=O)O)C(=O)O)C(=O)N[C@@H](CCCCN)C(=O)N[C@H](C(=O)N[C@@H](CC(C)C)C(=O)N[C@@H](CC(C)C)C(=O)N[C@@H](CCC(=O)O)C(=O)N[C@@H](CCC(N)=O)C(=O)N[C@@H](CCC(=O)O)C(=O)N[C@@H](CCCCN)C(=O)N[C@@H](CCC(N)=O)C(=O)N[C@@H](CCCCN)C(=O)N[C@@H](CCCCN)C(=O)N[C@@H](CCC(N)=O)C(=O)N[C@@H](CCCNC(=N)N)C(=O)N[C@@H](CCC(=O)O)C(=O)N[C@@H](CCC(N)=O)C(=O)N[C@@H](C)C(=O)N[C@@H](CCC(=O)O)C(=O)N[C@H](C(=O)N[C@@H](CC(N)=O)C(=O)N[C@@H](C)C(=O)N[C@@H](CCC(N)=O)C(=O)N[C@H](C(=O)N[C@@H](CC(C)C)C(=O)N[C@@H](C)C(=O)N[C@@H](CCC(N)=O)C(=O)N[C@H](C(N)=O)C(C)C)[C@@H](C)CC)[C@@H](C)O)[C@@H](C)CC)[C@@H](C)CC)C(C)C)C(C)C [compound 100] (Ac-IVLSLD[dV]PIKLK([AEEA-AEEA-γGlu-C18 diacid])KILLEQEKQKKQREQAETNAQILAQV-NH2) | 0.41 | 8 | > 250 | 0 | 13.2 | −22 | −12 | −9 | >24
